According to PubChem BioAssay (NCI):
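Results reflect a 48-hour exposure of cells in 96-well plates to compound at five concentrations. GI50 marks 50% less growth. TGI is the concentration that stops growth completely.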

Columns and labels:
Assay in all cases: inhibition of tumour cell growth, NCI panel, 48 h
PC-3 prostate = system: PC-3 prostate
NCI-H522 lung = system: NCI-H522 lung
SN12C renal = system: SN12C renal
HOP-62 NSCLC = system: HOP-62 NSCLC
DU-145 prostate = system: DU-145 prostate
SR leukemia = system: SR leukemia
LOX IMVI melanoma = system: LOX IMVI melanoma
BT-549 breast = system: BT-549 breast
COLO 205 colon = system: COLO 205 colon
HCT-116 colon = system: HCT-116 colon
SK-MEL-28 melanoma = system: SK-MEL-28 melanoma
MDA-MB-435 = system: MDA-MB-435
UACC-62 melanoma = system: UACC-62 melanoma
786-0 renal = system: 786-0 renal
M14 melanoma = system: M14 melanoma
OVCAR-3 ovarian = system: OVCAR-3 ovarian
UACC-257 melanoma = system: UACC-257 melanoma
U251 CNS = system: U251 CNS
HOP-92 NSCLC = system: HOP-92 NSCLC
T-47D breast = system: T-47D breast
HCC-2998 colon = system: HCC-2998 colon
HT29 colon = system: HT29 colon
OVCAR-5 ovarian = system: OVCAR-5 ovarian
KM12 colon = system: KM12 colon
HL-60(TB) leukemia = system: HL-60(TB) leukemia
MOLT-4 leukemia = system: MOLT-4 leukemia
CCRF-CEM leukemia = system: CCRF-CEM leukemia
CAKI-1 renal = system: CAKI-1 renal
NCI-H460 lung = system: NCI-H460 lung
ACHN renal = system: ACHN renal
EKVX NSCLC = system: EKVX NSCLC
SF-295 CNS = system: SF-295 CNS
SK-MEL-5 melanoma = system: SK-MEL-5 melanoma
SNB-75 CNS = system: SNB-75 CNS
IGROV1 ovarian = system: IGROV1 ovarian
OVCAR-4 ovarian = system: OVCAR-4 ovarian
MDA-MB-231 breast = system: MDA-MB-231 breast
HCT-15 colon = system: HCT-15 colon
SK-MEL-2 melanoma = system: SK-MEL-2 melanoma
SK-OV-3 ovarian = system: SK-OV-3 ovarian
OVCAR-8 ovarian = system: OVCAR-8 ovarian
SF-539 CNS = system: SF-539 CNS
NCI-H226 lung = system: NCI-H226 lung
RPMI-8226 leukemia = system: RPMI-8226 leukemia
A498 renal = system: A498 renal
MALME-3M melanoma = system: MALME-3M melanoma
RXF 393 renal = system: RXF 393 renal
MCF7 breast = system: MCF7 breast
SF-268 CNS = system: SF-268 CNS
NCI/ADR-RES ovarian = system: NCI/ADR-RES ovarian
HS 578T breast = system: HS 578T breast
SW-620 colon = system: SW-620 colon
NCI-H23 lung = system: NCI-H23 lung
UO-31 renal = system: UO-31 renal
A549 NSCLC = system: A549 NSCLC

CNCCNc1nc2ccccc2c2c(=O)c3cc(OC)ccc3sc12
GI50 (PC-3 prostate): 1.47 µM
TGI (PC-3 prostate): 2.94 µM
GI50 (NCI-H522 lung): 1.73 µM
TGI (NCI-H522 lung): 3.56 µM
GI50 (SN12C renal): 1.5 µM
TGI (SN12C renal): 2.96 µM
GI50 (HOP-62 NSCLC): 1.49 µM
TGI (HOP-62 NSCLC): 3.22 µM
GI50 (DU-145 prostate): 1.73 µM
TGI (DU-145 prostate): 3.16 µM
GI50 (SR leukemia): 1.74 µM
TGI (SR leukemia): 4.23 µM
GI50 (LOX IMVI melanoma): 1.51 µM
TGI (LOX IMVI melanoma): 2.88 µM
GI50 (BT-549 breast): 1.59 µM
TGI (BT-549 breast): 3.11 µM
GI50 (COLO 205 colon): 1.64 µM
TGI (COLO 205 colon): 3.34 µM
GI50 (HCT-116 colon): 1.34 µM
TGI (HCT-116 colon): 2.62 µM
GI50 (SK-MEL-28 melanoma): 1.84 µM
TGI (SK-MEL-28 melanoma): 3.34 µM
GI50 (MDA-MB-435): 1.72 µM
TGI (MDA-MB-435): 3.13 µM
GI50 (UACC-62 melanoma): 1.69 µM
TGI (UACC-62 melanoma): 3.13 µM
GI50 (786-0 renal): 1.7 µM
TGI (786-0 renal): 3.18 µM
GI50 (M14 melanoma): 1.73 µM
TGI (M14 melanoma): 3.23 µM
GI50 (OVCAR-3 ovarian): 1.84 µM
TGI (OVCAR-3 ovarian): 3.43 µM
GI50 (UACC-257 melanoma): 1.89 µM
TGI (UACC-257 melanoma): 3.75 µM
GI50 (U251 CNS): 1.5 µM
TGI (U251 CNS): 2.92 µM
GI50 (HOP-92 NSCLC): 1.29 µM
TGI (HOP-92 NSCLC): 3.32 µM
GI50 (T-47D breast): 1.71 µM
TGI (T-47D breast): 3.66 µM
GI50 (HCC-2998 colon): 1.47 µM
TGI (HCC-2998 colon): 2.9 µM
GI50 (HT29 colon): 1.52 µM
TGI (HT29 colon): 3.26 µM
GI50 (OVCAR-5 ovarian): 1.8 µM
TGI (OVCAR-5 ovarian): 3.27 µM
GI50 (KM12 colon): 1.8 µM
TGI (KM12 colon): 3.48 µM
GI50 (HL-60(TB) leukemia): 1.9 µM
TGI (HL-60(TB) leukemia): 3.6 µM
GI50 (MOLT-4 leukemia): 1.77 µM
TGI (MOLT-4 leukemia): 3.53 µM
GI50 (CCRF-CEM leukemia): 1.76 µM
TGI (CCRF-CEM leukemia): 3.46 µM
GI50 (CAKI-1 renal): 1.5 µM
TGI (CAKI-1 renal): 2.97 µM
GI50 (NCI-H460 lung): 1.71 µM
TGI (NCI-H460 lung): 3.25 µM
GI50 (ACHN renal): 1.58 µM
TGI (ACHN renal): 2.93 µM
GI50 (EKVX NSCLC): 1.69 µM
TGI (EKVX NSCLC): 3.16 µM
GI50 (SF-295 CNS): 1.82 µM
TGI (SF-295 CNS): 3.36 µM
GI50 (SK-MEL-5 melanoma): 1.71 µM
TGI (SK-MEL-5 melanoma): 3.09 µM
GI50 (SNB-75 CNS): 1.28 µM
TGI (SNB-75 CNS): 2.58 µM
GI50 (IGROV1 ovarian): 1.55 µM
TGI (IGROV1 ovarian): 3.04 µM
GI50 (OVCAR-4 ovarian): 1.68 µM
TGI (OVCAR-4 ovarian): 3.22 µM
GI50 (MDA-MB-231 breast): 1.54 µM
TGI (MDA-MB-231 breast): 3.08 µM
GI50 (HCT-15 colon): 1.39 µM
TGI (HCT-15 colon): 2.83 µM
GI50 (SK-MEL-2 melanoma): 1.94 µM
TGI (SK-MEL-2 melanoma): 3.83 µM
GI50 (SK-OV-3 ovarian): 1.82 µM
TGI (SK-OV-3 ovarian): 3.97 µM
GI50 (OVCAR-8 ovarian): 1.91 µM
TGI (OVCAR-8 ovarian): 4.39 µM
GI50 (SF-539 CNS): 1.66 µM
TGI (SF-539 CNS): 3.03 µM
GI50 (NCI-H226 lung): 1.75 µM
TGI (NCI-H226 lung): 3.61 µM
GI50 (RPMI-8226 leukemia): 1.62 µM
TGI (RPMI-8226 leukemia): 3.41 µM
GI50 (A498 renal): 2.12 µM
TGI (A498 renal): 6.8 µM
GI50 (MALME-3M melanoma): 1.82 µM
TGI (MALME-3M melanoma): 3.31 µM
GI50 (RXF 393 renal): 1.39 µM
TGI (RXF 393 renal): 2.7 µM
GI50 (MCF7 breast): 1.54 µM
TGI (MCF7 breast): 3.1 µM
GI50 (SF-268 CNS): 1.64 µM
TGI (SF-268 CNS): 3.39 µM
GI50 (NCI/ADR-RES ovarian): 1.68 µM
TGI (NCI/ADR-RES ovarian): 3.48 µM
GI50 (HS 578T breast): 1.84 µM
TGI (HS 578T breast): 4.33 µM
GI50 (SW-620 colon): 1.41 µM
TGI (SW-620 colon): 2.91 µM
GI50 (NCI-H23 lung): 1.62 µM
TGI (NCI-H23 lung): 3.05 µM
GI50 (UO-31 renal): 1.29 µM
TGI (UO-31 renal): 2.6 µM
GI50 (A549 NSCLC): 1.71 µM
TGI (A549 NSCLC): 3.41 µM
